Data as given in PubChem BioAssay (NCI).
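Test compounds were applied to cells in 96-well plates for 48 hours at 5 doses. GI50 marks 50% less growth. TGI is the concentration that stops growth completely.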

Key:
Assay in all cases: growth of human tumour cells (NCI), 48 h
[1] = system: 786-0 renal
[2] = system: A498 renal
[3] = system: A549 NSCLC
[4] = system: ACHN renal
[5] = system: BT-549 breast
[6] = system: CAKI-1 renal
[7] = system: CCRF-CEM leukemia
[8] = system: COLO 205 colon
[9] = system: DU-145 prostate
[10] = system: HCT-116 colon
[11] = system: HCT-15 colon
[12] = system: HL-60(TB) leukemia
[13] = system: HOP-62 NSCLC
[14] = system: HS 578T breast
[15] = system: HT29 colon
[16] = system: IGROV1 ovarian
[17] = system: K-562 leukemia
[18] = system: KM12 colon
[19] = system: LOX IMVI melanoma
[20] = system: M14 melanoma
[21] = system: MCF7 breast
[22] = system: MDA-MB-231 breast
[23] = system: MDA-MB-435
[24] = system: MOLT-4 leukemia
[25] = system: NCI-H226 lung
[26] = system: NCI-H23 lung
[27] = system: NCI-H460 lung
[28] = system: NCI-H522 lung
[29] = system: NCI/ADR-RES ovarian
[30] = system: OVCAR-3 ovarian
[31] = system: OVCAR-4 ovarian
[32] = system: OVCAR-5 ovarian
[33] = system: OVCAR-8 ovarian
[34] = system: PC-3 prostate
[35] = system: RPMI-8226 leukemia
[36] = system: SF-268 CNS
[37] = system: SF-295 CNS
[38] = system: SF-539 CNS
[39] = system: SK-MEL-2 melanoma
[40] = system: SK-MEL-28 melanoma
[41] = system: SK-MEL-5 melanoma
[42] = system: SK-OV-3 ovarian
[43] = system: SN12C renal
[44] = system: SNB-19 CNS
[45] = system: SNB-75 CNS
[46] = system: SR leukemia
[47] = system: SW-620 colon
[48] = system: T-47D breast
[49] = system: U251 CNS
[50] = system: UACC-257 melanoma
[51] = system: UO-31 renal

**Q.** Which results are given for `CCOc1cccnc1/C=N/NC(N)=S`?
**A.** GI50 [1]: 3.66 µM; TGI [1]: > 100 µM; GI50 [2]: 3.95 µM; TGI [2]: > 100 µM; GI50 [3]: 3.34 µM; TGI [3]: > 100 µM; GI50 [4]: 4.01 µM; TGI [4]: > 100 µM; GI50 [5]: 6.02 µM; TGI [5]: > 100 µM; GI50 [6]: 3.51 µM; TGI [6]: > 100 µM; GI50 [7]: 3 µM; TGI [7]: 12 µM; GI50 [8]: 3.87 µM; TGI [8]: > 100 µM; GI50 [9]: 3.53 µM; TGI [9]: > 100 µM; GI50 [10]: 4.26 µM; TGI [10]: > 100 µM; GI50 [11]: 4.08 µM; TGI [11]: > 100 µM; GI50 [12]: 2.42 µM; TGI [12]: 6.16 µM; GI50 [13]: 3.71 µM; TGI [13]: 48.5 µM; GI50 [14]: 52.3 µM; TGI [14]: > 100 µM; GI50 [15]: 4.34 µM; TGI [15]: > 100 µM; GI50 [16]: 5.01 µM; TGI [16]: > 100 µM; GI50 [17]: 3.72 µM; TGI [17]: > 100 µM; GI50 [18]: 4.38 µM; TGI [18]: > 100 µM; GI50 [19]: 2.7 µM; TGI [19]: 14 µM; GI50 [20]: 3.14 µM; TGI [20]: 15 µM; GI50 [21]: 3.25 µM; TGI [21]: > 100 µM; GI50 [22]: 3.27 µM; TGI [22]: > 100 µM; GI50 [23]: 4.53 µM; TGI [23]: > 100 µM; GI50 [24]: 3.13 µM; TGI [24]: 10.4 µM; GI50 [25]: 3.6 µM; TGI [25]: 83 µM; GI50 [26]: 5.05 µM; TGI [26]: > 100 µM; GI50 [27]: 3.48 µM; TGI [27]: > 100 µM; GI50 [28]: 3.05 µM; TGI [28]: > 100 µM; GI50 [29]: 3.99 µM; TGI [29]: > 100 µM; GI50 [30]: 4.44 µM; TGI [30]: > 100 µM; GI50 [31]: 2.79 µM; TGI [31]: > 100 µM; GI50 [32]: 6.37 µM; TGI [32]: > 100 µM; GI50 [33]: 3.48 µM; TGI [33]: > 100 µM; GI50 [34]: 3.9 µM; TGI [34]: > 100 µM; GI50 [35]: 3.82 µM; TGI [35]: > 100 µM; GI50 [36]: 3.42 µM; TGI [36]: > 100 µM; GI50 [37]: 3.92 µM; TGI [37]: > 100 µM; GI50 [38]: 2.8 µM; TGI [38]: 9.59 µM; GI50 [39]: 9.93 µM; TGI [39]: > 100 µM; GI50 [40]: 4.75 µM; TGI [40]: > 100 µM; GI50 [41]: 3.4 µM; TGI [41]: > 100 µM; GI50 [42]: 5.01 µM; TGI [42]: > 100 µM; GI50 [43]: 3.5 µM; TGI [43]: > 100 µM; GI50 [44]: 4.43 µM; TGI [44]: > 100 µM; GI50 [45]: 3.84 µM; TGI [45]: > 100 µM; GI50 [46]: 2.98 µM; TGI [46]: 12.3 µM; GI50 [47]: 4.46 µM; TGI [47]: > 100 µM; GI50 [48]: 4.85 µM; TGI [48]: > 100 µM; GI50 [49]: 2.9 µM; TGI [49]: > 100 µM; GI50 [50]: 3.99 µM; TGI [50]: 39.1 µM; GI50 [51]: 2.9 µM; TGI [51]: 26.6 µM
